From EP4696708A1, “PEPTIDE TYROSINE-TYROSINE ANALOG AND USE THEREOF” (The United Bio-Technology (Hengqin) Co., Ltd., priority 2023, dated 2024)
*1 amine or outer side, *2 acyl side, *3 side chain or, on linkers, in order; H or OH if unused. Where a SMILES comes first, the peptide text is derived from it. Side-chain parts run from the residue outwards. [ ]: non-standard residue; d: D form. The star is where a group is joined. C18 diacid = O=C(O)CCCCCCCCCCCCCCCCC(=O)*; γGlu = O=C(O)[C@H](CCC(=O)[*:2])N[*:1]; AEEA = NCCOCCOCC(=O)O; Aib = CC(C)(N)C(=O)O

Assays:
hNPY1R = target: T1, hNPY1R (Homo sapiens, UniProt P25929); test: calcium flux assay (FLIPR), in vitro functional activity on human NPY1 receptor; assay type: cell-based; settings: initial concentration 1 µM, average of at least 3 independent tests
T1 sequence (P25929 1-384): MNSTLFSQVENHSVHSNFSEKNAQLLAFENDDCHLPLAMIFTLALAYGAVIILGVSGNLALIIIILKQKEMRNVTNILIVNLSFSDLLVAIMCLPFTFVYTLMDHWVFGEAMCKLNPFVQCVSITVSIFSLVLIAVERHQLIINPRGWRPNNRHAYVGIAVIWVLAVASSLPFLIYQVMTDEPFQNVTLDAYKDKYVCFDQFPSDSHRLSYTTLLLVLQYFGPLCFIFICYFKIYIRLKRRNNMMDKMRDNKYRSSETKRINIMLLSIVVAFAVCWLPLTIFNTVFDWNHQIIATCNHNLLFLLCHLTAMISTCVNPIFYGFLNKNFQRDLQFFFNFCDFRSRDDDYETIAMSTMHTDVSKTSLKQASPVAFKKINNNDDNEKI
Method: • 1) Preparation of test analogue and positive reference agonist: the test analogue was diluted 4-fold to 10 concentrations using Bravo, transferred 900 nL to the analogue plate using Echo, and then added with 30 µL of detection buffer (20 mM HEPES, 1×HBSS, 0.1% casein) to each well. The initial concentration of the test analogue and the positive reference agonist were 1 µM. • 2) The cell plate was removed from the incubator (cell Y1 needs to be removed of the culture medium and added with 20 µL of detection buffer, otherwise they will all be a high signal; it is not necessary for Y5), added with 2*Fluo-4 detection reagent, 20 µL per well, incubated in a 37°C incubator for 50 minutes, and then left to stand at room temperature for 10 minutes. • 3) The cell plate, the analogue plate, and the pipette tip were placed into the FLIPR instrument, the instrument was started, and 10 µL of analogue was transferred from the analogue plate to the cell plate. […] Using the logarithm of the concentration of analogues as the horizontal axis and the activation rate of calcium ion fluorescence signal as the vertical axis, the "Nonlinear regression (curve fit)-log (antigen) vs. response Variable slope" model in GraphPad Prism 5.0 was used for fitting to calculate the EC50 of the sample.

[1] = target: T2, recombinant human NPY2 receptor (Homo sapiens, UniProt P49146); test: cAMP assay, in vitro functional activity on NPY2 receptors (inhibition of Forskolin-induced cAMP production); assay type: cell-based; settings: HEK 293 cells overexpressing recombinant human NPY2 receptor; average of at least 3 independent tests; read-out: hNPY2R EC50
T2 construct: expressed in transfected cells; host or cells: HEK 293
T2 sequence (P49146 1-381): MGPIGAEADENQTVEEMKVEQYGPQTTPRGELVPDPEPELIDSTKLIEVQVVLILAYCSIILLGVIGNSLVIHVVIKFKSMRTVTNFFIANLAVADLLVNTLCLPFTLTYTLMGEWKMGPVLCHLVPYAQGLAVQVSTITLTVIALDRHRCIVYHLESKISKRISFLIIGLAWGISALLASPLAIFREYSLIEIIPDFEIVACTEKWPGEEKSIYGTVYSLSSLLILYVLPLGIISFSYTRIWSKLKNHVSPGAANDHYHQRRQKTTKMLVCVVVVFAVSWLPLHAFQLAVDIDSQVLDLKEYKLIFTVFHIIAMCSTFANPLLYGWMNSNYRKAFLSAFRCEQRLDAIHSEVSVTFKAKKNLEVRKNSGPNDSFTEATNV
Method: After addition, they were centrifuged at 1000 rpm for 1 minute. • 5) 5 µL of 2 µM Forskolin (prepared with detection buffer) was added to a 384-well cell reaction plate using Multidrop Combi and centrifuged at 1000 rpm for 1 minute. 5 µL of detection buffer containing cells was added to a 384-well reaction plate, ensuring a cell count of 3000 cells per well. […] It was covered with a lid and incubated at room temperature in the dark for 1 hour. • 7) After incubation for 1 hour, it was placed in an EnVision microplate reader for measurement.

[2] = plasma pharmacokinetics in crab-eating macaques (LC-MS/MS); assay type: in vivo; settings: monkey, sc, male crab-eating macaques, single subcutaneous 0.246 mg/kg
Method: (§1) Blood samples were collected from each animal at each time point after administration, and the blood samples were centrifuged at around 4°C, 3200 g, for 10 minutes. Plasma was collected separately, transferred to pre-labeled 96-well plates or polypropylene tubes, speedily frozen on dry ice, and stored at -60°C or lower until LC-MS/MS analysis.
(§2) LC-MS/MS method was adopted to determine the concentration of the measured analogues in blood samples. The data on the changes in plasma concentration over time were plotted into a chart and analyzed using non partitioned methods with Phoenix WinNonlin 6.3 software program. Relevant PK parameters were calculated based on the administration routes.
The plasma pharmacokinetics of PYY analogues in male crab-eating macaques were evaluated after a single subcutaneous administration of 0.246 mg/kg Analogue 3. Blood samples were collected from 2 crab-eating macaques at each time point after administration for 1h, 2h, 4h, 8h, 12h, 24h, 48h, 72h, 96h, 120h, 144h, 168h, 192h, 240h, 288h, 336h, 408h, 504h, extending to 504 hours. Due to the use of discontinuous sampling to evaluate the kinetics of PYY analogues in crab-eating macaques, the pharmacokinetic parameters of Analogue 3 after a single subcutaneous administration of 0.246 mg/kg were listed using average concentration-time data.

[3] = plasma pharmacokinetics in SD rats (LC-MS/MS); assay type: in vivo; settings: rat, sc, male rats, single subcutaneous 0.492 mg/kg
Method: as §1, §2
The plasma pharmacokinetics of PYY analogues in male SD rats were evaluated after a single subcutaneous administration of 0.492 mg/kg Analogue 3. Blood samples were collected from 3 rats at each time point after administration for 0.5h, 1h, 2h, 4h, 8h, 12h, 16h, 24h, 48h, 72h, 96h, 120h, 144h, 168h, extending to 168h. Due to the use of discontinuous sampling to evaluate the kinetics of PYY analogues in rats, the pharmacokinetic parameters of Analogue 3 after a single subcutaneous administration of 0.492 mg/kg were listed using average concentration-time data.

Structure (SMILES)	EC50 (hNPY1R)	EC50 [1]	AUC(0-inf) [2]	Cmax [2]	Tmax [2]	half-life [2]	AUC(0-inf) [3]	Cmax [3]	Tmax [3]	half-life [3]
CC(C)C[C@H](NC(=O)[C@H](Cc1ccc(O)cc1)NC(=O)[C@H](Cc1c[nH]cn1)NC(=O)[C@H](CCCNC(=N)N)NC(=O)[C@H](CC(C)C)NC(=O)[C@H](CO)NC(=O)C(C)(C)NC(=O)[C@H](Cc1ccc(O)cc1)NC(=O)[C@H](Cc1ccc(O)cc1)NC(=O)[C@H](CCCNC(=N)N)NC(=O)[C@H](CCC(N)=O)NC(=O)[C@H](Cc1c[nH]c2ccccc12)NC(=O)[C@H](CCC(=O)O)NC(=O)[C@H](CCC(=O)O)NC(=O)[C@@H]1CCCN1C(=O)[C@H](CO)NC(=O)C(C)(C)NC(=O)[C@H](CC(=O)O)NC(=O)[C@H](CCC(=O)O)NC(=O)[C@H](CCC(=O)O)NC(=O)[C@@H]1CCCN1C(=O)[C@H](CCCCNC(=O)COCCOCCNC(=O)CC[C@H](NC(=O)CCCCCCCCCCCCCCCCC(=O)O)C(=O)O)NC(=O)[C@H](CCC(=O)O)NC(=O)[C@@H]1CCCN1C(=O)[C@H](CCCCN)NC(=O)[C@@H]1CCCN1)C(=O)N[C@@H](CC(N)=O)C(=O)N[C@@H](Cc1c[nH]c2ccccc12)C(=O)N[C@@H](CC(C)C)C(=O)N[C@H](C(=O)N[C@@H](CCCNC(=N)N)C(=O)N[C@@H](CCC(N)=O)C(=O)N[C@@H](CCCNC(=N)N)C(=O)N[C@@H](Cc1ccc(O)cc1)C(N)=O)[C@@H](C)O [Analogue 1] (H-PKPEK([AEEA-γGlu-C18 diacid])PEED[Aib]SPEEWQRYY[Aib]SLRHYLNWLTRQRY-NH2)	> 50 nM	–	–	–	–	–	–	–	–	–
CC(C)C[C@H](NC(=O)[C@H](CCC(=O)O)NC(=O)[C@H](C)NC(=O)[C@H](Cc1ccc(O)cc1)NC(=O)[C@H](Cc1ccc(O)cc1)NC(=O)[C@H](CCCNC(=N)N)NC(=O)[C@H](CCC(N)=O)NC(=O)[C@H](Cc1c[nH]c2ccccc12)NC(=O)[C@H](CCC(=O)O)NC(=O)[C@H](CCC(=O)O)NC(=O)[C@@H]1CCCN1C(=O)[C@H](CO)NC(=O)[C@H](C)NC(=O)[C@H](CC(=O)O)NC(=O)C(C)(C)NC(=O)[C@H](CCC(=O)O)NC(=O)[C@@H]1CCCN1C(=O)[C@H](CCCCNC(=O)COCCOCCNC(=O)CC[C@H](NC(=O)CCCCCCCCCCCCCCCCC(=O)O)C(=O)O)NC(=O)[C@H](CCC(=O)O)NC(=O)[C@@H]1CCCN1C(=O)[C@H](CCCCN)NC(=O)[C@@H]1CCCN1)C(=O)N[C@@H](CCCNC(=N)N)C(=O)N[C@@H](Cc1c[nH]cn1)C(=O)N[C@@H](Cc1ccc(O)cc1)C(=O)N[C@@H](CC(C)C)C(=O)N[C@@H](CC(N)=O)C(=O)N[C@@H](Cc1c[nH]c2ccccc12)C(=O)N[C@@H](CC(C)C)C(=O)N[C@H](C(=O)N[C@@H](CCCNC(=N)N)C(=O)N[C@@H](CCC(N)=O)C(=O)N[C@@H](CCCNC(=N)N)C(=O)N[C@@H](Cc1ccc(O)cc1)C(N)=O)[C@@H](C)O [Analogue 2]	> 50 nM	0.037 nM	–	–	–	–	–	–	–	–
CC(C)C[C@H](NC(=O)[C@H](Cc1ccc(O)cc1)NC(=O)[C@H](Cc1c[nH]cn1)NC(=O)[C@H](CCCNC(=N)N)NC(=O)[C@H](CC(C)C)NC(=O)[C@H](CCC(=O)O)NC(=O)C(C)(C)NC(=O)[C@H](Cc1ccc(O)cc1)NC(=O)[C@H](Cc1ccc(O)cc1)NC(=O)[C@H](CCCNC(=N)N)NC(=O)[C@H](CCC(N)=O)NC(=O)[C@H](Cc1c[nH]c2ccccc12)NC(=O)[C@H](CCC(=O)O)NC(=O)[C@H](CCC(=O)O)NC(=O)[C@@H]1CCCN1C(=O)[C@H](CO)NC(=O)[C@H](C)NC(=O)[C@H](CC(=O)O)NC(=O)C(C)(C)NC(=O)[C@H](CCC(=O)O)NC(=O)[C@@H]1CCCN1C(=O)[C@H](CCCCNC(=O)COCCOCCNC(=O)CC[C@H](NC(=O)CCCCCCCCCCCCCCCCC(=O)O)C(=O)O)NC(=O)[C@H](CCC(=O)O)NC(=O)[C@@H]1CCCN1C(=O)[C@H](CCCCN)NC(=O)[C@@H]1CCCN1)C(=O)N[C@@H](CC(N)=O)C(=O)N[C@@H](Cc1c[nH]c2ccccc12)C(=O)N[C@@H](CC(C)C)C(=O)N[C@H](C(=O)N[C@@H](CCCNC(=N)N)C(=O)N[C@@H](CCC(N)=O)C(=O)N[C@@H](CCCNC(=N)N)C(=O)N[C@@H](Cc1ccc(O)cc1)C(N)=O)[C@@H](C)O [Analogue 3]	> 50 nM	0.037 nM	337 µg·h/mL	1.78 µg/mL	12 h	126 h	79.6 µg·h/mL	1.94 µg/mL	13.3 h	24.7 h
